The source of these data is US20250179059A1 (The Regents of the University of California, priority 2021, published 2025).

Assay [1] deals with T1, human BRD4 bromodomain II (Homo sapiens, UniProt O60885).
T1 construct: human BRD4 bromodomain II [based on Genbank NM_058243, residues 349-460]; host or cells: E. coli
Description: Bromodomain binding assay (AlphaScreen), BRD4 BDII. Summed up:
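E. coli-expressed N-terminal His6-tagged human BRD4 BDII (residues 349-460) or BDI (residues 44-170) was preincubated 30 min at room temperature with compound (10-point, 3-fold) in pH 7.5 HEPES buffer, 1% DMSO. Displacement of biotinylated tetra-acetylated H4 1-21 peptide was read by AlphaScreen, and IC50 came from curve fitting.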
On the technique in general: Bead proximity is the source of the signal in Alpha formats.

The subject of assay [2] is human SKM-1 acute myeloid leukemia cells. Nature of the assay: SKM-1 antiproliferation cell-based assay (ATPlite). Conditions: Homo sapiens. Summed up:
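Log-phase cells in RPMI 1640/15% FBS were seeded at 34722 cells/mL and exposed for 4 days to nine-concentration DMSO serial dilutions in triplicate. Viability was read as ATP luminescence (ATPlite 1step), and IC50 values came from variable-slope non-linear regression.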
Background: In ATP-based viability assays light output follows the ATP content of the culture.

Where [3] appears, read: AlphaScreen assay, Table C2, read-out: BRD4 BDII IC50.
The mark [4] stands for this setting: SKM-1, 96 h, SKM-1 antiproliferation assay, 4 days, Table C2.
[5] abbreviates: BRD4 BDII AlphaScreen assay, read-out: BRD4 BD2 IC50.
[6] abbreviates: SKM-1, SKM-1 antiproliferation assay.

Read-outs that look alike come from different tables or passages of the source. A value given as a limit tells only on which side of the number the result lay.

`CN1CCCC12CCCN(c1cc(-c3cc(F)cc(-c4ccc(-n5ccn(C)c5=O)c(Cl)c4)c3O)ccn1)C2` (stereo not shown) [Example 695, 1-(3-chloro-5′-fluoro-2′-hydroxy-3′-(2-(1-methyl-1,7-diazaspiro[4.5]decan-7-yl)pyridin-4-yl)-[1,1′-biphenyl]-4-yl)-3-methyl-1H-imidazol-2(3H)-one]: in assay [1] (setting [3]), the IC50 – broadly, the midpoint of a concentration-inhibition curve – was 0.01 to 1 nM. For the same molecule, the GI50 – broadly, the concentration that inhibits growth by half – in assay [2] (setting [4]) was in the range of 0.3 to 30 nM.

For `Cc1cc(-c2ccc(-n3ccn(C)c3=O)c(Cl)c2)c(O)c(-c2cnc(N)c(N3CCN(C(C)(C)C)CC3)c2)n1` [Example 962, 1-(4-(6′-amino-5′-(4-(tert-butyl)piperazin-1-yl)-3-hydroxy-6-methyl-[2,3′-bipyridin]-4-yl)-2-chlorophenyl)-3-methyl-1H-imidazol-2(3H)-one], the IC50 in assay [1] (setting [5]) fell in the range of 1 to 10 nM. Moreover, the GI50 in assay [2] (setting [6]) was in the range of 0.3 to 30 nM.

As to `Cc1ncc(-c2cc(F)cc(-c3ccc(-n4ccn(C)c4=O)c(Cl)c3)c2O)cc1N1CCCN(C(C)(C)C)CC1` [Example 844, 1-(3′-(5-(4-(tert-butyl)-1,4-diazepan-1-yl)-6-methylpyridin-3-yl)-3-chloro-5′-fluoro-2′-hydroxy-[1,1′-biphenyl]-4-yl)-3-methyl-1H-imidazol-2(3H)-one], in assay [1] (setting [3]), the IC50 fell in the range of 1 to 10 nM. The molecule further showed a GI50 in assay [2] (setting [4]) of 0.3 to 30 nM.

For the molecule `CN1CCN(c2ccc(-c3cc(F)cc(-c4cnc(CO)c(N5CCNCC5)c4)c3O)cc2Cl)C1=O` [Example 387, 1-(3-chloro-5′-fluoro-2′-hydroxy-3′-(6-(hydroxymethyl)-5-(piperazin-1-yl)pyridin-3-yl)-[1,1′-biphenyl]-4-yl)-3-methylimidazolidin-2-one], in assay [1] (setting [3]), the IC50 was 1 to 10 nM. Besides, the GI50 in assay [2] (setting [4]) is 30 to 300 nM.

Regarding `CN1CCN(c2cc(-c3cc(F)cc(-c4ccc(-n5ccn(C)c5=O)c(Cl)c4)c3O)ccn2)CC1` [Example 430, 1-(3-chloro-5′-fluoro-2′-hydroxy-3′-(2-(4-methylpiperazin-1-yl)pyridin-4-yl)-[1,1′-biphenyl]-4-yl)-3-methyl-1H-imidazol-2(3H)-one], in assay [1] (setting [3]), the IC50 is 0.01 to 1 nM. Further, in assay [2] (setting [4]), the GI50 lay within 0.3 to 30 nM.

As to `CC(C)N1CCC12CCN(c1cc(-c3cc(F)cc(-c4ccc(-n5ccn(C)c5=O)c(Cl)c4)c3O)cnc1N)C2` (stereo not shown) [Example 954, 1-(3′-(6-amino-5-(1-isopropyl-1,6-diazaspiro[3.4]octan-6-yl)pyridin-3-yl)-3-chloro-5′-fluoro-2′-hydroxy-[1,1′-biphenyl]-4-yl)-3-methyl-1H-imidazol-2(3H)-one], the IC50 in assay [1] (setting [5]) is 1 to 10 nM. In addition, the GI50 in assay [2] (setting [6]) fell in the range of 0.3 to 30 nM.

Turning to `CN[C@H]1CCN(c2cc(-c3cc(F)cc(-c4ccc(-n5ccn(C)c5=O)c(Cl)c4)c3O)cc3[nH]ncc23)C1` [Example 583], in assay [1] (setting [3]), the IC50 lay in the range of 1 to 10 nM. In assay [2] (setting [4]), this molecule showed a GI50 of 0.3 to 30 nM.

As for `Cn1ccn(-c2ccc(-c3cc(F)nc(-c4cccc(N5CCN(C(C)(C)C)CC5)c4)c3O)cc2Cl)c1=O` [Example 1029, 1-(4-(2-(3-(4-(tert-Butyl)piperazin-1-yl)phenyl)-6-fluoro-3-hydroxypyridin-4-yl)-2-chlorophenyl)-3-methyl-1H-imidazol-2(3H)-one], the IC50 in assay [1] (setting [5]) lay in the range of 0.01 to 1 nM. Also, the GI50 in assay [2] (setting [6]) is 0.3 to 30 nM.

For `COCC(COC)N1CCN(c2cc(-c3cc(F)cc(-c4ccc(-n5ccn(C)c5=O)c(Cl)c4)c3O)ccn2)CC1` [Example 733, 1-(3-chloro-3′-(2-(4-(1,3-dimethoxypropan-2-yl)piperazin-1-yl)pyridin-4-yl)-5′-fluoro-2′-hydroxy-[1,1′-biphenyl]-4-yl)-3-methyl-1H-imidazol-2(3H)-one], the IC50 in assay [1] (setting [3]) was 1 to 10 nM. For the same molecule, the GI50 in assay [2] (setting [4]) is 30 to 300 nM.

As for `Cn1ccn(-c2ccc(-c3cc(F)cc(-c4ccnc(N5CC[C@@](C)(N)C5)c4)c3O)cc2Cl)c1=O` [Example 716, (R)-1-(3′-(2-(3-amino-3-methylpyrrolidin-1-yl)pyridin-4-yl)-3-chloro-5′-fluoro-2′-hydroxy-[1,1′-biphenyl]-4-yl)-3-methyl-1,3-dihydro-], in assay [1] (setting [3]), the concentration for half-maximal inhibition (IC50) fell in the range of 0.01 to 1 nM. In addition, the GI50 in assay [2] (setting [4]) lay within 0.3 to 30 nM.

With `CN1CCN(c2ccc(-c3cc(F)cc(-c4cc(N5CCC[C@H](N)C5)c(=O)n(C)c4)c3O)cc2Cl)C1=O` [Example 378, (S)-3-(3-aminopiperidin-1-yl)-5-(3′-chloro-5-fluoro-2-hydroxy-4′-(3-methyl-2-oxoimidazolidin-1-yl)-[1,1′-biphenyl]-3-yl)-1-methylpyridin-2(1H)-one], the IC50 in assay [1] (setting [3]) was 1 to 10 nM. The same molecule registered a GI50 in assay [2] (setting [4]) of 30 to 300 nM.

On to `CC(C)N1CCCN(c2cc(-c3cc(F)cc(-c4ccc(-n5ccn(C)c5=O)c(Cl)c4)c3O)ccn2)CC1` [Example 678, 1-(3-chloro-5′-fluoro-2′-hydroxy-3′-(2-(4-isopropyl-1,4-diazepan-1-yl)pyridin-4-yl)-[1,1′-biphenyl]-4-yl)-3-methyl-1H-imidazol-2(3H)-one], for which the IC50 in assay [1] (setting [3]) was 0.01 to 1 nM. In addition, the GI50 in assay [2] (setting [4]) fell in the range of 0.3 to 30 nM.

`Cn1cc(-c2cc(F)cc(-c3ccc(-n4ccn(C)c4=O)c(Cl)c3)c2O)cc(N2CC[C@@](C)(N)C2)c1=O` [Example 753, (R)-3-(3-amino-3-methylpyrrolidin-1-yl)-5-(3′-chloro-5-fluoro-2-hydroxy-4′-(3-methyl-2-oxo-2,3-dihydro-1H-imidazol-1-yl)-[1,1′-biphenyl]-3-yl)-1-methylpyridin-2(1H)-one]: the IC50 in assay [1] (setting [3]) is 0.01 to 1 nM. The molecule further returned a GI50 in assay [2] (setting [4]) of 0.3 to 30 nM.

Regarding `CN(C)[C@H]1CCCN(c2cc(-c3cc(F)cc(-c4ccc(-n5ccn(C)c5=O)c(Cl)c4)c3O)ccn2)C1` [Example 457, (S)-1-(3-chloro-3′-(2-(3-(dimethylamino)piperidin-1-yl)pyridin-4-yl)-5′-fluoro-2′-hydroxy-[1,1′-biphenyl]-4-yl)-3-methyl-1H-imidazol-2(3H)-one], the IC50 in assay [1] (setting [3]) lay within 1 to 10 nM. This molecule registered a GI50 in assay [2] (setting [4]) of 0.3 to 30 nM.

`COCc1ncc(-c2cc(F)cc(-c3ccc(N4CCN(C)C4=O)c(Cl)c3)c2O)cc1N1CCNCC1` [Example 399, 1-(3-chloro-5′-fluoro-2′-hydroxy-3′-(6-(methoxymethyl)-5-(piperazin-1-yl)pyridin-3-yl)-[1,1′-biphenyl]-4-yl)-3-methylimidazolidin-2-one]: in assay [1] (setting [3]), the IC50 is 1 to 10 nM. Besides, the GI50 in assay [2] (setting [4]) was 30 to 300 nM.

Consider `CNC1(c2cccc(-c3cc(F)cc(-c4ccc(-n5ccn(C)c5=O)c(Cl)c4)c3O)c2)CC1` [Example 799, 1-(3-chloro-5′-fluoro-2′-hydroxy-3″-(1-(methylamino)cyclopropyl)-[1,1′:3′,1″-terphenyl]-4-yl)-3-methyl-1H-imidazol-2(3H)-one], for which the IC50 in assay [1] (setting [3]) was 0.01 to 1 nM. The molecule further gave a GI50 in assay [2] (setting [4]) of 30 to 300 nM.

Turning to `Cc1ccc(-c2cc(F)cc(-c3ccc(-n4ccn(C)c4=O)c(Cl)c3)c2O)cc1N1CCN(C(C)(C)C)CC1` [Example 800, 1-(3″-(4-(tert-butyl)piperazin-1-yl)-3-chloro-5′-fluoro-2′-hydroxy-4″-methyl-[1,1′:3′,1″-terphenyl]-4-yl)-3-methyl-1H-imidazol-2(3H)-one], in assay [1] (setting [3]), the IC50 lay within 0.01 to 1 nM. This molecule also gave a GI50 in assay [2] (setting [4]) of 0.3 to 30 nM.

`CN1CCN(c2ccc(-c3cccc(-c4ccnc(N5CCCC(N)C5)c4)c3O)cc2Cl)C1=O` (stereo not shown) [Example 301, 1-(3′-(2-(3-aminopiperidin-1-yl)pyridin-4-yl)-3-chloro-2′-hydroxy-[1,1′-biphenyl]-4-yl)-3-methylimidazolidin-2-one]: the IC50 in assay [1] (setting [3]) was in the range of 1 to 10 nM. The molecule further yielded a GI50 in assay [2] (setting [4]) of 30 to 300 nM.

As to `CC(=O)N1CCN(c2ccc(-c3cc(F)cc(-c4ccnc(N5CCNCC5)c4)c3O)cc2Cl)C1=O` [Example 381, 1-acetyl-3-(3-chloro-5′-fluoro-2′-hydroxy-3′-(2-(piperazin-1-yl)pyridin-4-yl)-[1,1′-biphenyl]-4-yl)imidazolidin-2-one], the IC50 in assay [1] (setting [3]) is over 100 nM. The same molecule registered a GI50 in assay [2] (setting [4]) of 300 to 3000 nM.

Turning to `CCc1ncc(-c2cc(F)cc(-c3ccc(-n4ccn(C)c4=O)c(Cl)c3)c2O)cc1N1CC[C@@](C)(O)C1` [Example 852, (R)-1-(3-Chloro-3′-(6-ethyl-5-(3-hydroxy-3-methylpyrrolidin-1-yl)pyridin-3-yl)-5′-fluoro-2′-hydroxy-[1,1′-biphenyl]-4-yl)-3-methyl-1H-imidazol-2(3H)-one], in assay [1] (setting [5]), the IC50 is 0.01 to 1 nM. In assay [2] (setting [6]), this molecule yielded a GI50 of 0.3 to 30 nM.

For `CC1(C)CCN(c2ccc(-c3cccc(-c4ccnc(N5CCNCC5)c4)c3O)cc2Cl)C1=O` [Example 329, 1-(3-chloro-2′-hydroxy-3′-(2-(piperazin-1-yl)pyridin-4-yl)-[1,1′-biphenyl]-4-yl)-3,3-dimethylpyrrolidin-2-one], the half-maximal inhibitory concentration (IC50) in assay [1] (setting [3]) was over 100 nM. For the same molecule, the GI50 in assay [2] (setting [4]) fell in the range of 300 to 3000 nM.

As to `CC(=O)N[C@]1(C)CCN(c2cncc(-c3cc(F)cc(-c4ccc(-n5ccn(C)c5=O)c(Cl)c4)c3O)c2)C1` [Example 793, (R)-N-(1-(5-(3′-chloro-5-fluoro-2-hydroxy-4′-(3-methyl-2-oxo-2,3-dihydro-1H-imidazol-1-yl)-[1,1′-biphenyl]-3-yl)pyridin-3-yl)-3-methylpyrrolidin-3-yl)acetamide], the IC50 in assay [1] (setting [3]) fell in the range of 0.01 to 1 nM. In assay [2] (setting [4]), this molecule displayed a 50% growth inhibitory concentration (GI50) of 0.3 to 30 nM.

As to `CCN1CCN(c2ccc(-c3cccc(-c4ccnc(N5CCNCC5)c4)c3O)cc2Cl)C1=O` [Example 346, 1-(3-chloro-2′-hydroxy-3′-(2-(piperazin-1-yl)pyridin-4-yl)-[1,1′-biphenyl]-4-yl)-3-ethylimidazolidin-2-one], the IC50 in assay [1] (setting [3]) was over 100 nM. Further, in assay [2] (setting [4]), the GI50 was in the range of 300 to 3000 nM.
